From patent publication US5286733A, “Substituted 3-piperidinealkanoates and alkanones and compositions and method of use thereof” (Sterling Winthrop Inc., priority 1992, dated 1994)
Read-outs that look alike come from different tables or passages of the source.

Biological target: T1, sigma receptors (Cavia porcellus, UniProt Q60492)
T1 construct: Brain tissue was prepared from male Hartley guinea pigs; tissue Hazelton Labs, Denver, Pa; (animals); host or cells: guinea pig brain membranes
Assay: sigma receptor binding activity, [3H]-(+)-pentazocine binding to guinea pig brain membranes
Design: species or system male Hartley guinea pigs
Conditions: for inhibition at 10 µM: read-out: Percent Inhibition (of [3H]-(+)-pentazocine binding)
Description: Brain tissue was prepared from male Hartley guinea pigs (Hazelton Labs, Denver, Pa.) which were anesthetized with CO2 and sacrificed by decapitation. All animal care and use procedures were in accord with the "Guide for the Care and Use of Laboratory Animals" (NIH Publ. No 86-23, 1985). Homogenization was performed in 10 volumes (wt/vol) of 0.32M sucrose with a Brinkmann Polytron at setting 5, 30 sec. The homogenate was centrifuged at 900 x g for 10 min at 4° C., and the supernatant was collected and centrifuged at 22,000 x g for 20 min at 4° C. The pellet was resuspended in 10 volumes of Tris-HCl buffer (50 mM, pH 7.4), incubated at 37° C. for 30 min, and centrifuged at 22,000 x g for 20 min at 4° C. Following this, the pellet was resuspended in Tris buffer and frozen in 5-10 mL aliquots corresponding to a tissue concentration of 100 mg/mL, at -70° C. Binding characteristics of the membranes were stable for at least one month when stored at -70° C.
On the day of the assay, membrane aliquots were thawed, resuspended in fresh Tris-HCl buffer and stored on ice until use. Each assay tube contained 100 μL of [3H]-(+)-pentazocine at a final concentration of approximately 0.5 nM, 100 μL of various concentrations of the compounds of interest, 500 μL of the tissue suspension and 300 μL of buffer to a final assay volume of 1 mL and a final tissue concentration of approximately 8 mg/tube, corresponding to approximately 0.15 mg protein/tube. Nonspecific binding was defined by addition of a final concentration of 1 μM haloperidol to blank tubes. All tubes were incubated at 37° C. for 150 min before termination of the reaction by rapid filtration over Whatman GF/B glass fiber filters that were presoaked in a solution of 0.5% polyethyleneimine for at least 1 hr prior to use. Filters were washed with three 4 ml volumes of cold Tris-HCl buffer.
Following addition of scintillation cocktail, samples were allowed to equilibrate for at least 4 hr. The amount of bound radioactivity was determined by liquid scintillation spectrometry using a Beckman LS 5000 TA liquid scintillation counter with an efficiency for tritium of approximately 60%. The results are reported as a percent (%) inhibition of binding at 10 μM.
Scatchard parameters and inhibition constants (Ki values) for the binding of test compounds were also calculated using the EBDA/LIGAND program (McPherson, J. Pharmacol. Meth. 1985, 14, 213-228), purchased from Elsevier/Biosoft, Inc. The Ki values are expressed as the mean ±SEM of at least three separate determinations performed in triplicate.

[1] = at 10 μM, guinea pig brain membranes, approximately 0.5 nM [3H]-(+)-pentazocine, 37° C., 150 min

T1 sequence (Q60492 whole entry): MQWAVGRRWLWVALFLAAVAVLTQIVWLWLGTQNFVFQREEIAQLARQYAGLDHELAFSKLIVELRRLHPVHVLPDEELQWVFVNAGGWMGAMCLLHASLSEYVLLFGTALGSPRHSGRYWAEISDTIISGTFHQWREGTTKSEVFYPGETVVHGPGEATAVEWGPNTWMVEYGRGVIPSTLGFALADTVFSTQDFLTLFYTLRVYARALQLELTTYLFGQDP

Row | Structure (SMILES) | inhibition at 10 µM [1] [%] | Ki (mean ±SEM of at least three separate determinations performed in triplicate, [3H]-(+)-pentazocine, EBDA/LIGAND) [nM] | inhibition at 10 µM [%]
1 | CCOC(=O)CC[C@]1(C)[C@H](C)CCN(C)[C@H]1C (relative stereo) [Example 1, ethyl 3-(1,2,3,4-tetramethyl-3-piperidine)propanoate] | 70 | – | –
2 | C[C@@H]1CCN(C)[C@@H](C)[C@]1(C)CCC(=O)CCC1CCCC1 (relative stereo) [Example 2, 1-cyclopentyl-5-(1,2,3,4-tetramethyl-3-piperidinyl)-3-pentanone] | – | – | 100
3 | C[C@@H]1CCN(C)[C@@H](C)[C@]1(C)CCC(=O)c1ccoc1 (relative stereo) [Example 4, 1-(3-furanyl)-3-(1.2.3.4-tetramethyl-3-piperidinyl)-1-propanone] | – | – | 78
4 | C[C@@H]1CCN(C)[C@@H](C)[C@]1(C)CCC(=O)c1ccco1 (relative stereo) [Example 5, 1-(2-furanyl)-3-(1,2,3,4-tetramethyl-3-piperidinyl)-1-propanone] | – | – | 57
5 | CCOC(=O)CC[C@]1(C)[C@H](C)CCN(Cc2ccccc2)[C@H]1C (relative stereo) [Example 6, ethyl 3-[2,3,4-trimethyl-1-(phenylmethyl)-3-piperidine)propanoate] | 99 | 39 ± 5 | –
6 | CC1N(CC2(O)CC2)CCC2CCCCC21CCC(=O)CCC1CCCC1 (stereo not drawn) [Example 10] | 84 | – | –

Now from value to compound, other results behind:

Row | inhibition at 10 µM [1] [%] | Ki (mean ±SEM of at least three separate determinations performed in triplicate, [3H]-(+)-pentazocine, EBDA/LIGAND) [nM] | Structure (SMILES) | inhibition at 10 µM [%]
7 | 96 | – | C[C@@H]1CCN[C@@H](C)[C@]1(C)CCC(=O)CCC1CCCC1 (relative stereo) [Example 3b, 1-cyclopentyl-5-(2,3,4-trimethyl-3-piperidinyl)-3-pentanone] | –
8 | 98 | – | C[C@@H]1CCN(CC2(O)CC2)[C@@H](C)[C@]1(C)CCC(=O)CCC1CCCC1 (relative stereo) [Example 3c] | –
